Results on one molecule are retold here after patent US6107549A, “Genetically engineered plant resistance to thiazopyr and other pyridine herbicides” (Monsanto Company, priority 1999, dated 2000).

The test system of experiment [1] is tomato. Description: Field test for tomato resistance. Type of experiment: in vivo. As for the experimental part: Field test for tomato resistance. A single field test was conducted in early summer at a Monsanto Company research farm in Jerseyville, Ill. A total of 9 transgenic lines were selected for the field study. […] The remaining 6 lines were R1 seeds selected based on high expression level and seed availability. About 400 seeds were pooled from each line based on uniformity of size and appearance, and randomly separated into 4 groups of about 100 seeds. Four parallel plots (5×20 m) were respectively sprayed with 0, 112, 336, and 673 g/ha of thiazopyr, which was then incorporated down to 7.5 cm of soil depth. The projected field use-rate for thiazopyr is about 280 g/ha. Seeds were placed in a furrow at every 5 cm distance and covered with soil. UC82B seeds were used as untransformed controls. After sowing, 13 mm of water was irrigated over the plots. […] Nevertheless, it was possible to measure thiazopyr resistance based on seedling emergence between control UC82B and the transgenic lines. […] However at 336 g/ha, #8255-30 maintained germination at 10% while UC82B declined to about 1%. […] The transgenic lines flowered, set fruit, and yielded abundant tomatoes and seeds.

Experiment [2] relates to tomato. The experiment can be described thus: Greenhouse test, pre-plant incorporation (PPI). The note with it: 21 DAT. It counts as in vivo. As for the experimental part:
Green house test for tomato resistance. Similar studies were also conducted in greenhouse with pre-plant incorporation (PPI) of thiazopyr into the soil. During pre-emergence application of thiazopyr, it is possible that cracks in soil may allow seedlings to escape from exposure to thiazopyr that was sprayed on the soil surface. One way to prevent such escapes is to apply thiazopyr with pre-plant incorporation (PPI). In this method of application, thiazopyr is first incorporated into the soil and seeds are sowed directly into that soil. PPI application of thiazopyr can cause the most plant injury and therefore require lower rates of thiazopyr application.
Tomato seeds were planted in 100 cm^2 pots filled with a sterilized silty loam soil (510 g). Seeds were placed on top of soil, and covered with additional soil (135 g) which was premixed with thiazopyr at equivalent use rates of 0, 34, 45, 67, and 140 g/ha. Greenhouse growing conditions were: 29° C. day to 21° C. night with supplemental lighting as needed to maintain 200-900 μE.
In order to be certain that tomato resistance to thiazopyr in the above PE experiment was not due to escapes, a further experiment in the greenhouse using conducted using PPI application. Plants were visually rated at 21 days after treatment (DAT) based on comparison of % growth to untreated plants, and the results are presented in the bar chart in FIG. 6. […] At the 45 g/ha rate, UC82B was severely injured (10% growth) and the transgenics lines minimally injured (90% growth). At the 67 g/ha rate, UC82B plants were dead and the transgenics were stunted at 40 to 50% growth. […] Both #8255 and #8230 lines expressed the pyridine-esterase at 0.05% of total protein. The term `resistance` in all of these examples can also be expressed as a recombinantly acquired tolerance to the applied levels or rates of pyridine herbicide.

`COC(=O)c1c(C(F)F)nc(C(F)(F)F)c(C2=NCCS2)c1CC(C)C` [thiazopyr]: the germination result is listed as “slightly lower but still comparable germination” in the experiment on tomato [1] (UC82B and #8255-30, 112 g/ha, 21 days after planting); “about 1%” in the experiment with tomato [1] (UC82B control, 336 g/ha); “no germination at all” in the experiment with tomato [1] (UC82B control, 673 g/ha); 10% with tomato [1] (transgenic #8255-30, 336 g/ha); 4% in the experiment with tomato [1] (transgenic #8255-30, 673 g/ha). For the same molecule, in the experiment on tomato [1] (UC82B plants that germinated at 112 and 336 g/ha), the “survival at later time points” value is reported as “had died due to weakening of the stem at the soil line”. For the same molecule, the “growth at later time points” value in the experiment on tomato [1] (transgenic lines showing thiazopyr injury) was “growth was not affected”. Also, the “% growth compared to untreated plants” value in the experiment with tomato [2] (UC82B control, 34 g/ha PPI) came to 75%; with tomato [2] (UC82B control, 45 g/ha PPI), 10%; in the experiment on tomato [2] (transgenic #8255 and #8230, 34 g/ha PPI) it was 100%; in the experiment on tomato [2] (transgenic #8255 and #8230, 45 g/ha PPI) it was 90%. Besides, the plant condition entry in the experiment on tomato [2] (UC82B control, 67 g/ha PPI) was “dead”.
